Measurements taken from patent US20220373555A1, “Methods to detect or quantify a gadolinium-based contrast agent in a sample using a luminescent agent able to chelate a Gd3+ cation” (THE REGENTS OF THE UNIVERSITY OF CALIFORNIA, priority 2021, published 2022).

Experiments:
[1] = Effect of urine on Eu3+-3,4,3-LI(1,2-HOPO) emission / stability in urine; assay type: physicochemical
Method: Urine is a complex matrix comprised of salts and metabolism by-products, which can potentially affect assay response. […] Although the average pH of human urine is 6.0, there is a strong variation among individuals.^37 Therefore, the following in vitro experiments are performed with urine at 50% dilution with […] buffer (50 mM, pH 6.0) to fix the acidity of the solution, preventing potential variations in the assay response due to sample pH, and 10 min incubation times, which had been optimized in preliminary experiments.
2 μL 3,4,3-LI(1,2-HOPO) (1 mM) and EuCl3 (1 mM) are added to a water solution, mixed for 10 s, and left to incubate at room temperature, without stirring, for 10 min. The absorption spectrum (from 250 to 425 nm) and luminescence spectrum (from 500 to 750 nm under 315 nm excitation) are recorded with a SpectraMax iD3 Multi-Mode Microplate Reader (Molecular Devices, Sunnyvale, Calif.).

[2] = Quantification of GBCAs in mouse urine by luminescence assay; assay type: in vivo, Swiss Webster mice; settings: for [GBCA] in assay solution: mouse urine 2 h after injection, diluted in MES buffer; for [GBCA] in original sample: mouse urine collected 2 h after injection; for GBCA concentration in mouse urine, Luminescence assay: urine collected 2 h after i.v. injection, 0.3 mmol/kg
Method: (§1) Finally, the luminescence assay by quantifying GBCAs in mouse urine samples is validated. The three GBCAs are intravenously injected (four mice per group), and urine is collected 2 h after injection, as mice excrete the contrast agents more quickly than humans do.^41 Due to the different composition between mouse and human urine,^42 calibration curves (FIG. 7) are performed by spiking GBCA standards into urine from control mice rather than into synthetic human urine. Table 4 reports the assay response to the mouse urine samples, and Table 3 compares the GBCA concentrations quantified by the assay versus inductively coupled plasma optical emission spectrometry (ICP-OES), which is one of the gold standard techniques for gadolinium quantification.^43 The assay provided values that are very similar to those of ICP-OES, with only slightly higher standard deviations.
(§2) The protocol used in the animal studies is reviewed and approved by the Institutional Animal Care and Use Committee of Lawrence Berkeley National Laboratory, and is performed in AAALAC-accredited facilities according to prescribed guidelines and regulations. The animals are young adult (78 days old) female (33.0±1.4 g) Swiss Webster mice (Simonsen Laboratories, Gilroy, Calif., USA). Mice are kept under a 12 h light cycle with controlled temperature (21-24° C.) and relative humidity (30-70%), and are given water and food ad libitum. Each group is housed together in a plastic stock cage lined with a 0.5 cm layer of highly absorbent low-ash pelleted cellulose bedding (ALPHA-dri). Groups of four mice are injected intravenously into a warmed lateral tail vein with a single dose of GBCA (0.3 mmol/kg mouse) or bacteriostatic 0.9 bio sodium chloride solution (control group), and urine is collected after 2 h through bladder massage method. Finally, euthanasia is performed under isotiurane anesthesia.
Because the GBCA concentration in mouse urine is very high at early excretion times, the samples are diluted in buffer as described: 1 μL mouse urine samples are mixed with […] MES solutions (final concentration 50 mM, pH 6.0). 4 μL 3,4,3-LI(1,2-HOPO) (1 mM) are added to each solution, mixed for 10 s, and left to incubate at room temperature, without stirring for 10 min. 4 μL EuCl3 (1 mM) are added, mixed for 10 s and left undisturbed for 10 min before recording emission spectra from 500 to 700 nm under 315 nm excitation with a SpectraMax iD3 Multi-Mode Microplate Reader. For calibration curve preparation, GBCA standard solutions are spiked into urine of control mice. The resulting solutions are quantified as previously described in this paragraph.

[3] = Quantification of GBCAs in mouse urine by ICP-OES; assay type: in vivo, Swiss Webster mice; settings: urine collected 2 h after i.v. injection, 0.3 mmol/kg
Method: as §1
as §2, with “Groups of four mice are injected intravenously into a warmed lateral tail vein with a single dose of GBCA (0.3 mmol/kg mouse) or bacteriostatic 0.9 bio sodium chloride solution (control group), and urine is collected after 2 h through bladder massage method. Finally, euthanasia is performed under isotiurane anesthesia.” left out
To quantify the concentrations of the GBCA in mouse urine by ICP-OES, 50 μL of commercial stock solutions are digested in 100 μL of nitric acid (70%) and 100 μL of hydrogen chloride (6 N) for 3 h at 60 ° C. and re-dispersed in 4.75 mL of Milli-Q water. The final concentration of gadolinium in solution is quantified on a Perkin Elmer 5300 DV optical emission ICP with auto sampler at the Inductively Coupled Plasma Spectroscopy Facility of the University of California, Berkeley. […]

[4] = Detection of GBCA in synthetic human urine by luminescence quenching assay; settings: GBCA increased up to 150 μM; 50% synthetic human urine, 50 mM MES pH 6.0
Method: In this assay, 3,4,3-LI(1,2-HOPO) is added to the urine sample and, in the absence of GBCAs, 1,2-HOPO groups remain available to complex other metal species. Eu^3+ is then added, and its emission is sensitized (FIG. 3). In the presence of GBCAs, however, 1,2-HOPO units acquire the Gd^3+ from the contrast agent because of their higher affinity for the metal compared to clinical ligands,^23 preventing the coordination of subsequently added Eu^3+. Thus, a drastic emission quenching is induced in presence of GBCAs.
Surine™ samples containing different amounts of GBCA are diluted down to 50% with MES solution (final concentration 50 mM, pH 6.0). 2 μL 3,4,3-LI(1,2-HOPO) (1 mM) are added to each solution, mixed for 10 s, and left to incubate at room temperature, without stirring for 10 min. 2 μL EuCl3 (1 mM) are added, mixed for 10 s and left undisturbed for 10 min before recording emission spectra from 500 to 700 nm under 315 nm excitation with a SpectraMax iD3 Multi-Mode Microplate Reader.
The limit of detection is calculated as: […]
Where ILOD is the assay response intensity at the limit of detection, Iblank is the response intensity of the blank, and σblank is the standard deviation for the blank signal.

[5] = Selectivity of the Eu3+-3,4,3-LI(1,2-HOPO) probe: optical response to Gd3+ and interfering cations; assay type: physicochemical; settings: 50 μM cation; emission at 620 nm, 315 nm excitation
Method: The optical response (FIG. 2b) of the Eu^3+-3,4,3-LI(1,2-HOPO) complex to Gd^3+ ions and several potential interfering cations is examined.
2 μL 3,4,3-LI(1,2-HOPO) (1 mM) are added to various solutions containing 50 μM of Gd^3+, Na^+, K^+, Ca^2+ or Mg^2+, mixed for 10 s, and left to incubate at room temperature, without stirring for 10 min. 2 μL EuCl3 (1 mM) are added to the solutions, mixed for 10 s, and left undisturbed for 10 min before recording emission spectra from 500 to 700 nm, under 315 nm excitation with a SpectraMax iD3 Multi-Mode Microplate Reader.

[GBCA] in assay solution [2] [µM]	[GBCA] in original sample [2] [M]	GBCA concentration in mouse urine, Luminescence assay [2] [M]	GBCA concentration in mouse urine, ICP-OES [3] [M]	Compound	also measured
–	–	–	–	Eu^3+-3,4,3-LI(1,2-HOPO)	effect of urine on emission ([1]; 20 μM, 0 to 100% artificial human urine (Surine), 315 nm excitation): not affected by urine
–	–	–	–	O=C(NCCCN(CCCCN(CCCNC(=O)c1cccc(=O)n1O)C(=O)c1cccc(=O)n1O)C(=O)c1cccc(=O)n1O)c1cccc(=O)n1O [3,4,3-LI(1,2-HOPO)]	stability in urine ([1]; urine): stable in urine
101 ± 3	0.020 ± 0.001	0.020 ± 0.001	0.024 ± 0.000	CNC(=O)CN(CCN(CCN(CC(=O)[O-])CC(=O)NC)CC(=O)[O-])CC(=O)[O-].[Gd+3] [Omnsican, gadodiamide]	–
86 ± 9	0.017 ± 0.004	0.017 ± 0.004	0.015 ± 0.000	CNC[C@H](O)[C@@H](O)[C@H](O)[C@H](O)CO.CNC[C@H](O)[C@@H](O)[C@H](O)[C@H](O)CO.O=C([O-])CN(CCN(CC(=O)[O-])CC(=O)O)CCN(CC(=O)O)C(COCc1ccccc1)C(=O)[O-].[Gd+3] (stereo not shown) [Multihance, gadobenate dimeglumine]	–
101 ± 13	0.020 ± 0.005	0.020 ± 0.005	0.018 ± 0.000	CNC[C@H](O)[C@@H](O)[C@H](O)[C@H](O)CO.CNC[C@H](O)[C@@H](O)[C@H](O)[C@H](O)CO.O=C([O-])CN(CCN(CC(=O)[O-])CC(=O)O)CCN(CC(=O)[O-])CC(=O)O.[Gd+3] [Magnevist, gadopentetate dimeglumine]	decrease of luminescence of the assay solution [4]: 75±1%
–	–	–	–	O.O.O.O.O.O.[Cl-].[Cl-].[Cl-].[Gd+3] [Gd^3+, gadolinium (III) chloride hexahydrate]	quenching of 20 μM Eu^3+-3,4,3-LI(1,2-HOPO) emission [5]: 71±1%
